In patent publication US20240368133A1, “Compounds for the Treatment of Pain, in Particular, Neuropathic Pain, and/or Other Diseases or Disorders that are Associated with AT2R and/or AT2R Mediated Signaling” (Confo Therapeutics N.V., priority 2021, published 2024):

Experiments:
human AT2R fused to Cb23 = human AT2R fused to Cb23 (Homo sapiens, UniProt P50052); assay: Radioligand binding assay, displacement of 125I-[Sar1, Ile8]-Angiotensin II, hAT2R Cb23; settings: displacement of 125I-[Sar1, Ile8]-Angiotensin II, human AT2R fused to Cb23, HEK-293 cell membrane preparations; read-out: Binding affinity on hAT2R_Cb23 IC50
Chain of human AT2R fused to Cb23 (P50052 whole entry, looked up, the tested form may be a part): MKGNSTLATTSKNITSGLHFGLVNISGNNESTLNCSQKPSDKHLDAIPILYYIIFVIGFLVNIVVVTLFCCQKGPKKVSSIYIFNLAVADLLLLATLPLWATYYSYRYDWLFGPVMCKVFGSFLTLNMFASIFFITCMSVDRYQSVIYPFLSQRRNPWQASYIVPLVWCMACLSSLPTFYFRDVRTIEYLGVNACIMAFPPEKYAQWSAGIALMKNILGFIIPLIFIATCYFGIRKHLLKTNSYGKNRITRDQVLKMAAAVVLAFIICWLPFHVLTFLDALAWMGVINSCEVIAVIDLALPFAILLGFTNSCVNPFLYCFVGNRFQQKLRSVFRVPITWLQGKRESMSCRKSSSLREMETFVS
How it was run: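 Membranes from HEK-293 cells expressing human AT2R fused to Cb23 were incubated with 0.05 nM 125I-[Sar1, Ile8]-Angiotensin II in 100 μL buffer (50 mM Tris, 5 mM MgCl2, 1 mM EDTA, 0.1% BSA, pH 7.4) for one hour at 25° C. Ligands were tested as eight-point dose-response curves in duplicate, with C21 and Angiotensin II as references.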

human AT1R = human AT1R (Homo sapiens (Human), UniProt P30556); assay: Counterscreen radioligand binding assay, displacement of 125I-[Sar1, Ile8]-Angiotensin II, hAT1R WT; settings: for inhibition at 1 µM / inhibition at 10 µM: 125I-[Sar1, Ile8]-Ang II, semi-quantitative score; for inhibition at 1 µM: compound at 1 μM, read-out: % Displaced radioligand at 1 μM; for inhibition at 10 µM: compound at 10 μM, read-out: % Displaced radioligand at 10 μM; for IC50: HEK-293 cell membranes, read-out: Binding affinity On hAT1R IC50
Chain of human AT1R (P30556 whole entry): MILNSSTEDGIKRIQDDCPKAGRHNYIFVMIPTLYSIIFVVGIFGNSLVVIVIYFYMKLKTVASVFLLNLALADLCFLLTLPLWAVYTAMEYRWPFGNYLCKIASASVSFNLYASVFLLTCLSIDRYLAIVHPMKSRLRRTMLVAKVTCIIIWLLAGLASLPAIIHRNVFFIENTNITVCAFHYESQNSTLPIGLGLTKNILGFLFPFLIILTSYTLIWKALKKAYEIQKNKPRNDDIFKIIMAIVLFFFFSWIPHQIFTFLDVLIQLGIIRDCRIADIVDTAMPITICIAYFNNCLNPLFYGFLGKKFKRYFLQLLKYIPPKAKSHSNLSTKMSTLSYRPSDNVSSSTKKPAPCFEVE
How it was run: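 Membranes from HEK-293 cells expressing human AT1R were incubated for one hour at 25° C, pH 7.4, with 0.05 nM radiolabelled [Sar1, Ile8]-Ang II and test ligand. Bound radioactivity was collected on PEI-soaked filters, with 10 μM unlabelled [Sar1]-Ang II defining non-specific binding. Results are percent displacement at 1 μM and […], or IC50 from eight-point duplicate curves.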

| IC50 (human AT2R fused to Cb23) [µM] | inhibition at 1 µM (human AT1R) [%] | inhibition at 10 µM (human AT1R) [%] | IC50 (human AT1R) [µM] | SMILES |
| --- | --- | --- | --- | --- |
| 1.98 | < 30 | < 30 | – | COc1ccc(CN2CCN(c3cc(CC(C)C)ccc3-c3nn[nH]n3)CC2)nn1 [Compound A-115, 3-[[4-[5-isobutyl-2-(2H-tetrazol-5-yl)-phenyl]piperazin-1-yl]methyl]-6-methoxy-pyridazine] |
| 8.98 | < 30 | 30 to 50 | 18.1 | COc1cc(F)c(-c2nn[nH]n2)c(N2CCN(Cc3nc4ccccc4s3)CC2)c1 [Compound A-116, 2-[[4-[3-fluoro-5-methoxy-2-(2H-tetrazol-5-yl)phen-yl]piperazin-1-yl]-methyl]-1,3-benzo-thiazole] |
| 1 | < 30 | < 30 | 41.5 | CC(C)Oc1cc(F)c(-c2nn[nH]n2)c(N2CCN(Cc3nc4ccccc4s3)CC2)c1 [Compound A-118, 2-[[4-[3-fluoro-5-isopropoxy-2-(2H-tetrazol-5-yl)phen-yl]piperazin-1-yl]-methyl]-1,3-benzo-thiazole] |
| 9.42 | < 30 | < 30 | – | CCc1cc(-c2nn[nH]n2)c(N2CCN(Cc3nc4ccccc4s3)CC2)cc1OC(C)C [Compound A-119, 2-[[4-[4-ethyl-5-isopropoxy-2-(2H-tetrazol-5-yl)phen-yl]piperazin-1-yl]-methyl]-1,3-benzo-thiazole] |
| 0.459 | < 30 | < 30 | – | CCc1cc(OC(C)C)cc(N2CCN(Cc3nc4ccccc4s3)CC2)c1-c1nn[nH]n1 [Compound A-120, 2-[[4-[3-ethyl-5-iso-propoxy-2-(2H-tetrazol-5-yl)phen-yl]piperazin-1-yl]-methyl]-1,3-benzo-thiazole] |
| 2.78 | < 30 | 30 to 50 | 11.7 | CC(C)Oc1cc(N2CCN(Cc3nc4ccccc4s3)CC2)c(-c2nn[nH]n2)cc1C1CC1 [Compound A-121, 2-[[4-[4-cycloprop-yl-5-isopropoxy-2-(2H-tetrazol-5-yl)-phenyl]piperazin-1-yl]methyl]-1,3-benzothiazole] |
| 0.293 | < 30 | < 30 | – | CC(C)Oc1cc(C2CC2)c(-c2nn[nH]n2)c(N2CCN(Cc3nc4ccccc4s3)CC2)c1 [Compound A-122, 2-[[4-[3-cycloprop-yl-5-isopropoxy-2-(2H-tetrazol-5-yl)-phenyl]piperazin-1-yl]methyl]-1,3-benzothiazole] |
| 4.88 | < 30 | < 30 | – | CCOc1cc(-c2nn[nH]n2)c(N2CCN(Cc3nc4ccccc4s3)CC2)cc1OC(C)C [Compound A-123, 2-[[4-[4-ethoxy-5-isopropoxy-2-(2H-tetrazol-5-yl)phen-yl]piperazin-1-yl]-methyl]-1,3-benzo-thiazole] |
| 0.389 | < 30 | < 30 | – | Fc1cc(C2CC2)cc(N2CCN(Cc3nc4ccccc4s3)CC2)c1-c1nn[nH]n1 [Compound A-125, 2-[[4-[5-cycloprop-yl-3-fluoro-2-(2H-tetrazol-5-yl)phen-yl]piperazin-1-yl]-methyl]-1,3-benzo-thiazole] |
| 0.0744 | < 30 | < 30 | – | Cc1cc(C2CC2)cc(N2CCN(Cc3nc4ccccc4s3)CC2)c1-c1nn[nH]n1 [Compound A-127, 2-[[4-[5-cycloprop-yl-3-methyl-2-(2H-tetrazol-5-yl)phen-yl]piperazin-1-yl]-methyl]-1,3-benzo-thiazole] |
| 2.19 | 30 to 50 | > 50 | 18.2 | CCc1cc(C2CC2)cc(N2CCN(Cc3nc4ccccc4s3)CC2)c1-c1nn[nH]n1 [Compound A-128, 2-[[4-[5-cycloprop-yl-3-ethyl-2-(2H-tetrazol-5-yl)phen-yl]piperazin-1-yl]-methyl]-1,3-benzo-thiazole] |
| 0.158 | < 30 | < 30 | – | c1ccc2sc(CN3CCN(c4cc(C5CC5)cc(C5CC5)c4-c4nn[nH]n4)CC3)nc2c1 [Compound A-129, 2-[[4-[3,5-dicyclo-propyl-2-(2H-tetrazol-5-yl)phen-yl]piperazin-1-yl]-methyl]-1,3-benzo-thiazole] |
| 0.355 | < 30 | < 30 | – | CC(C)Cc1cc(F)c(-c2nn[nH]n2)c(N2CCN(Cc3nc4ccccc4s3)CC2)c1 [Compound A-132, 2-[[4-[3-fluoro-5-isobutyl-2-(2H-tetrazol-5-yl)phen-yl]piperazin-1-yl]-methyl]-1,3-benzo-thiazole] |
| 1.19 | < 30 | < 30 | – | CC(C)Cc1cc(N2CCN(Cc3nc4ccccc4s3)CC2)c(-c2nn[nH]n2)cc1F [Compound A-133, 2-[[4-[4-fluoro-5-isobutyl-2-(2H-tetrazol-5-yl)phen-yl]piperazin-1-yl]-methyl]-1,3-benzo-thiazole] |
| 9.66 | < 30 | < 30 | – | Cc1cc(-c2nn[nH]n2)c(N2CCN(Cc3nc4ccccc4s3)CC2)cc1CC(C)C [Compound A-134, 2-[[4-[5-isobutyl-4-methyl-2-(2H-tetrazol-5-yl)phen-yl]piperazin-1-yl]-methyl]-1,3-benzo-thiazole] |
| 0.022 | < 30 | < 30 | – | Cc1cc(CC(C)C)cc(N2CCN(Cc3nc4ccccc4s3)CC2)c1-c1nn[nH]n1 [Compound A-135] |
| 0.0121 | < 30 | < 30 | – | CCc1cc(CC(C)C)cc(N2CCN(Cc3nc4ccccc4s3)CC2)c1-c1nn[nH]n1 [Compound A-136, 2-[[4-[3-ethyl-5-isobutyl-2-(2H-tetrazol-5-yl)phen-yl]piperazin-1-yl]-methyl]-1,3-benzo-thiazole] |
| 0.016 | < 30 | < 30 | – | CC(C)Cc1cc(C2CC2)c(-c2nn[nH]n2)c(N2CCN(Cc3nc4ccccc4s3)CC2)c1 [Compound A-137, 2-[[4-[3-cycloprop-yl-5-isobutyl-2-(2H-tetrazol-5-yl)-phenyl]piperazin-1-yl]methyl]-1,3-benzothiazole] |
| 4.71 | < 30 | < 30 | – | CC(C)Cc1cc(N2CCN(Cc3nc4ccccc4s3)CC2)c(-c2nn[nH]n2)cc1N [Compound A-138, 4-[4-(1,3-benzo-thiazol-2-ylmethyl)-piperazin-1-yl]-2-isobutyl-5-(2H-tetrazol-5-yl)aniline] |
| 4.96 | < 30 | < 30 | – | CNc1cc(-c2nn[nH]n2)c(N2CCN(Cc3nc4ccccc4s3)CC2)cc1CC(C)C [Compound A-139, 4-[4-(1,3-benzothi-azol-2-ylmethyl)-piperazin-1-yl]-2-isobutyl-N-methyl-5-(2H-tetrazol-5-yl)aniline] |
| 0.736 | < 30 | 30 to 50 | 24.7 | CCNc1cc(-c2nn[nH]n2)c(N2CCN(Cc3nc4ccccc4s3)CC2)cc1CC(C)C [Compound A-140, 4-[4-(1,3-benzo-thiazol-2-ylmethyl)-piperazin-1-yl]-N-ethyl-2-isobutyl-5-(2H-tetrazol-5-yl)-aniline] |
| 9.11 | < 30 | 30 to 50 | – | CCc1ccc(-c2nn[nH]n2)c(N2CCN(Cc3nc4ccccc4s3)CC2)n1 [Compound A-142, 2-[[4-[6-ethyl-3-(2H-tetrazol-5-yl)-2-pyridyl]piperazin-1-yl]methyl]-1,3-benzothiazole] |
| 5.46 | < 30 | < 30 | – | c1ccc2sc(CN3CCN(c4cc(C5CC5)cnc4-c4nn[nH]n4)CC3)nc2c1 [Compound A-143, 2-[[4-[5-cycloprop-yl-2-(2H-tetrazol-5-yl)-3-pyridyl]piper-azin-1-yl]methyl]-1,3-benzothiazole] |
| 8.22 | < 30 | < 30 | – | c1ccc2sc(CN3CCN(c4nc(C5CC5)ccc4-c4nn[nH]n4)CC3)nc2c1 [Compound A-145, 2-[[4-[6-cycloprop-yl-3-(2H-tetrazol-5-yl)-2-pyridyl]piper-azin-1-yl]methyl]-1,3-benzothiazole] |
| 9.74 | < 30 | < 30 | – | c1ccc2sc(CN3CCN(c4nc(C5CC5)cnc4-c4nn[nH]n4)CC3)nc2c1 [Compound A-146, 2-[[4-[6-cycloprop-yl-3-(2H-tetrazol-5-yl)pyrazin-2-yl]-piperazin-1-yl]-methyl]-1,3-benzo-thiazole] |
| 1.47 | < 30 | < 30 | – | CC(C)Cc1cnc(-c2nn[nH]n2)c(N2CCN(Cc3nc4ccccc4s3)CC2)c1 [Compound A-147, 2-[[4-[5-isobutyl-2-(2H-tetrazol-5-yl)-3-pyridyl]piperazin-1-yl]methyl]-1,3-benzothiazole] |
| 6.24 | < 30 | < 30 | – | CC(C)Cc1ccc(-c2nn[nH]n2)c(N2CCN(Cc3nc4ccccc4s3)CC2)n1 [Compound A-148, 2-[[4-[6-isobutyl-3-(2H-tetrazol-5-yl)-2-pyridyl]piperazin-1-yl]methyl]-1,3-benzothiazole] |
